# How the values were obtained:
# Experiment in all cases: ≥ marks a high value that may be exact or a test limit, other limits are often not marked, values filed in µg/mL are converted to µM
# [1] = test system: Pseudomonas aeruginosa ATCC 9027
# [2] = test system: Escherichia coli ATCC 25922
# [3] = test system: Candida albicans ATCC 10231
# [4] = test system: Staphylococcus aureus ATCC 6538
# [5] = test system: Candida albicans ATCC 90028
# [6] = test system: Staphylococcus aureus ATCC 25923
# Acinetobacter baumannii = test system: Acinetobacter baumannii
# [7] = test system: Klebsiella pneumoniae ATCC 700603
# [8] = test system: Bacillus subtilis ATCC 6633
Structure (SMILES),MIC [2] [µM],MIC [3] [µM],MIC [5] [µM],MIC [6] [µM],MIC (Acinetobacter baumannii) [µM],MIC [7] [µM],MIC [8] [µM],MIC [1] [µM],MIC [4] [µM]
CC(C)C[C@H](NC(=O)[C@H](C)NC(=O)[C@H](C)NC(=O)[C@H](CCCCN)NC(=O)[C@H](C)NC(=O)[C@H](CC(C)C)NC(=O)[C@H](CCCCN)NC(=O)[C@H](CCCCN)NC(=O)[C@H](C)NC(=O)[C@H](CC(C)C)NC(=O)[C@H](CCCCN)NC(=O)[C@H](CCCCN)NC(=O)[C@H](C)NC(=O)[C@@H](N)Cc1ccccc1)C(N)=O [FAKKLAKKLAKAAL],–,–,–,–,–,–,–,66.6,6.66
CC(C)C[C@H](NC(=O)[C@H](CCCCN)NC(=O)[C@H](CCCCN)NC(=O)[C@H](C)NC(=O)[C@H](CC(C)C)NC(=O)[C@H](CCCCN)NC(=O)[C@H](CCCCN)NC(=O)[C@H](CC(C)C)NC(=O)[C@H](CCCCN)NC(=O)[C@H](CCCCN)NC(=O)[C@H](C)NC(=O)[C@@H](N)Cc1ccccc1)C(N)=O [FAKKLKKLAKKL],–,–,–,–,–,–,–,141,70.6
CC(C)C[C@H](NC(=O)[C@H](CCCCN)NC(=O)[C@H](CCCCN)NC(=O)[C@H](C)NC(=O)[C@H](CC(C)C)NC(=O)[C@H](CCCCN)NC(=O)[C@H](CCCCN)NC(=O)[C@H](CC(C)C)NC(=O)[C@H](CCCCN)NC(=O)[C@H](CCCCN)NC(=O)[C@H](C)NC(=O)[C@H](CC(C)C)NC(=O)[C@H](CCCCN)NC(=O)[C@H](CCCCN)NC(=O)[C@H](C)NC(=O)[C@H](Cc1ccccc1)NC(=O)[C@H](CCCCN)NC(=O)[C@H](CCCCN)NC(=O)[C@H](Cc1ccccc1)NC(=O)[C@H](CC(C)C)NC(=O)[C@H](CCCCN)NC(=O)[C@@H](NC(=O)[C@@H](N)CCCCN)[C@@H](C)O)C(=O)O [KTKLFKKFAKKLAKKLKKLAKKL],–,–,–,–,–,–,–,36.6,3.66

# Now from value to compound, other results behind:
MIC [2] [µM],MIC [3] [µM],MIC [5] [µM],MIC [6] [µM],MIC (Acinetobacter baumannii) [µM],MIC [7] [µM],MIC [8] [µM],Structure (SMILES),MIC [1] [µM],MIC [4] [µM]
34300,8580,–,–,–,–,–,N[C@@H](CC(=O)O)C(=O)N[C@@H](Cc1ccc(O)cc1)C(=O)N[C@@H](CC(=O)O)C(=O)N[C@@H](CC(=O)O)C(=O)O [DYDD],17200,–
> 160,–,≥ 80,10,–,–,–,CC[C@H](C)[C@H](NC(=O)[C@@H]1CCCN1C(=O)[C@H](CC(C)C)NC(=O)[C@@H](N)Cc1ccccc1)C(=O)N[C@@H](CC(C)C)C(=O)NCC(=O)N[C@@H](CCCCN)C(=O)N[C@@H](CC(C)C)C(=O)N[C@@H](CC(C)C)C(=O)N[C@@H](CO)C(=O)NCC(=O)N[C@@H](CC(C)C)C(=O)N[C@@H](CC(C)C)C(N)=O [FLPILGKLLSGLL],–,–
64,–,–,> 64,≥ 64,> 64,–,CC[C@H](C)[C@H](N)C(=O)N[C@@H](CC(C)C)C(=O)N[C@@H](CCCCN)C(=O)N1CCC[C@H]1C(=O)N[C@@H](CCCCN)C(=O)N[C@@H](CC(C)C)C(=O)N[C@@H](Cc1c[nH]c2ccccc12)C(=O)N[C@@H](CCCCN)C(=O)N[C@@H](CC(C)C)C(=O)N[C@H](C(=O)N[C@H](C(=O)N[C@H](C(=O)N[C@@H](C)C(=O)N[C@@H](CCCN=C(N)N)C(=O)N[C@@H](CCCCN)C(=O)N[C@H](C(=O)N[C@H](C(=O)N[C@@H](CCCCN)C(=O)O)[C@@H](C)CC)[C@@H](C)CC)C(C)C)C(C)C)[C@@H](C)O [ILKPKLWKLTVVARKIIK],64,–
64,–,–,32,8,64,–,CC[C@H](C)[C@H](NC(=O)[C@H](CCCN=C(N)N)NC(=O)[C@H](CC(C)C)NC(=O)[C@@H](NC(=O)[C@H](Cc1ccccc1)NC(=O)[C@H](CCCN=C(N)N)NC(=O)[C@H](C)NC(=O)[C@@H](N)CC(C)C)C(C)C)C(=O)N[C@@H](CC(C)C)C(=O)N[C@@H](CCCCN)C(=O)N[C@@H](Cc1ccc(O)cc1)C(=O)NCC(=O)N[C@@H](Cc1ccccc1)C(=O)N[C@@H](CCCCN)C(=O)O [LARFVLRILKYGFK],64,–
> 81,> 81,–,> 81,–,–,≥ 81,NCCCC[C@H](NC(=O)[C@H](CCCCN)NC(=O)[C@H](Cc1c[nH]c2ccccc12)NC(=O)[C@H](CCCCN)NC(=O)[C@H](Cc1ccccc1)NC(=O)[C@H](CCCN=C(N)N)NC(=O)[C@H](Cc1c[nH]c2ccccc12)NC(=O)[C@@H](N)CCCN=C(N)N)C(=O)O [RWRFKWKK],–,–

# From DBAASP
